The record followed here is ChEMBL document CHEMBL5325445, “Discovery and development of small-molecule heparanase inhibitors” (Bioorg Med Chem, 2023).

A word on the inhibition: it is the percentage by which the read-out fell short of the control. In general, IC50 refers to the concentration that gives 50% inhibition.

The test system of assay [1] is U2OS. The assay is described as follows: Anti-invasive activity against human U2OS cells assessed as cell invasion at 2.5 uM. The assay is classed as functional.
Assay [2] can be described thus: Antiproliferative activity against mouse Lewis lung carcinoma cells assessed as reduction in cell viability measured after 24 hrs by MTT assay. The assay is classed as functional, cell-based. A general note: Formazan colour is commonly taken as a measure of viable cells.
For assay [3], the system named is HepG2. Nature of the assay: Antiproliferative activity against human HepG2 cells assessed as reduction in cell viability measured after 24 hrs by MTT assay. The assay is classed as functional, cell-based. The following applies: HepG2, 24 h.
A short description of assay [4]: Anti-angiogenic activity in human endothelial cells assessed as reduction in cell growth.
Assay [5] concerns HT-1080. Nature of the assay: Inhibition of cell invasion in human HT-1080 cells.
Assay [6] deals with T1, Heparanase (Homo sapiens, UniProt Q9Y251).
T1 sequence (Q9Y251 whole entry): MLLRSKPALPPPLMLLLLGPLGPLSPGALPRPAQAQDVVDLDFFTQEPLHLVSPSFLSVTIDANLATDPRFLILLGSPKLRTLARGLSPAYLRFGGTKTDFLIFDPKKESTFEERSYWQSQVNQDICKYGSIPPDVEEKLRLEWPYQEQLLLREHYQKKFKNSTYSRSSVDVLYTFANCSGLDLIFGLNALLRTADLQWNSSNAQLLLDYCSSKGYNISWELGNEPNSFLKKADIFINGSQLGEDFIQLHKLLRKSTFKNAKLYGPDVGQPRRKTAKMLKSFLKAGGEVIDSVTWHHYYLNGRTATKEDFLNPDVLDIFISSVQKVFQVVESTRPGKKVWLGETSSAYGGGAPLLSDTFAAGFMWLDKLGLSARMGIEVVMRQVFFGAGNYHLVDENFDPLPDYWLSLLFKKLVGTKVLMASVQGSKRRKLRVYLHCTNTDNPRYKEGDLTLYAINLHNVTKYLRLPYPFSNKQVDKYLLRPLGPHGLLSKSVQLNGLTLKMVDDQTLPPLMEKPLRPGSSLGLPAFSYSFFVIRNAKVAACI
Nature of the assay: Inhibition of heparanase (unknown origin).

`O=C(Nc1ccc(-c2nc3ccccc3[nH]2)cc1)c1ccc(C(=O)Nc2ccc(-c3nc4ccccc4[nH]3)cc2)cc1`: the inhibition at 2.5 µM in assay [1] was determined as 80%.
Turning to `Oc1c(I)cc(I)cc1-c1nn2c(-c3ccccc3)nnc2s1`, the IC50 in assay [2] turned out to be 8300 nM; in assay [3], 11900 nM.
In the case of `O=C(O)c1ccc2c(c1)C(=O)N(c1ccc(NC(=O)c3cccc(C(=O)Nc4ccc(N5C(=O)c6ccc(C(=O)O)cc6C5=O)cc4Cl)c3)c(Cl)c1)C2=O`, the inhibition at 2.5 µM in assay [1] is 75%.
Turning to `COCCOc1ccc(-c2nc3cc(-c4ccccc4)ccc3o2)cc1N1C(=O)c2ccc(C(=O)O)cc2C1=O`, the IC50 in assay [4] was found to be 5000 nM.
For the compound `CCCNc1ccc(N2C(=O)c3ccc(C(=O)O)cc3C2=O)cc1-c1nc2cc(-c3ccc(F)cc3)ccc2o1`, the IC50 in assay [4] worked out at 200 nM.
For `CCCCCCCCCCCCCCCC(=O)C1=C(OCc2ccccc2)[C@@H](CO)OC1=O`, half-maximal inhibition in assay [5] (IC50) was put at 1500 nM.
For the compound `COc1ccc(N2C(=O)c3ccc(C(=O)O)cc3C2=O)cc1-c1nc2cc(-c3cc(F)cc(F)c3)ccc2o1`, the IC50 in assay [4] was less than 10000 nM.
On the same count and under the same terms, the result for `CCCNc1ccc(N2C(=O)c3ccc(C(=O)O)cc3C2=O)cc1-c1nc2cc(-c3ccc(OC(F)(F)F)cc3)ccc2o1` reads 200 nM; that for `COc1ccc(-c2nc3cc(-c4cccc(-c5ccccc5)c4)ccc3o2)cc1N1C(=O)c2ccc(C(=O)O)cc2C1=O`, 1000 nM.
In the case of `O=C(Nn1c(-c2ccccc2)n[nH]c1=S)c1cc(I)cc(I)c1O`, the IC50 in assay [2] amounted to 11800 nM; in assay [3] it was 14900 nM.
Consider `CCCNc1ccc(N2C(=O)c3ccc(C(=O)O)cc3C2=O)cc1-c1nc2cc(-c3ccc(Cl)cc3)ccc2o1`, for which, in assay [4], the IC50 amounted to 200 nM.
Same read-out and setting: the result for `CCCNc1ccc(N2C(=O)c3ccc(C(=O)O)cc3C2=O)cc1-c1nc2cc(-c3ccc(F)c(Cl)c3)ccc2o1` reads 200 nM.
`O=C(O)c1ccc2c(c1)C(=O)N(c1cccc(-c3nc4cc(-c5cccc(-c6ccccc6)c5)ccc4o3)c1)C2=O`: the IC50 in assay [4] amounted to 1000 nM.
The same measure, in the same setting: the result for `CCCNc1ccc(N2C(=O)c3ccc(C(=O)O)cc3C2=O)cc1-c1nc2cc(-c3cccc(Cl)c3)ccc2o1` reads 200 nM.
Still for that read-out and setting: next, `COc1ccc(-c2nc3cc(-c4ccc(F)cc4)ccc3o2)cc1N1C(=O)c2ccc(C(=O)O)cc2C1=O`: less than 10000 nM.
Turning to `COc1cccc(-n2nc(C(=O)O)cc2-c2ccc(C3CCCCC3)c(Cl)c2)c1`, in assay [6], half-maximal inhibition (IC50) was put at 10000 nM.
Turning to `Oc1ccc(I)cc1-c1nn2c(-c3ccccc3)nnc2s1`, the IC50 worked out at 16600 nM in assay [2] and 18400 nM in assay [3].
Consider `COc1ccc(N2C(=O)c3ccc(C(=O)O)cc3C2=O)cc1-c1nc2cc(-c3ccc4c(c3)OCO4)ccc2o1`, for which, in assay [4], the IC50 worked out at 750 nM.
The same measure, in the same setting: the result for `CCCNc1ccc(N2C(=O)c3ccc(C(=O)O)cc3C2=O)cc1-c1nc2cc(-c3ccc(C(F)(F)F)cc3)ccc2o1` reads 200 nM.
